Results from patent publication US20240393292A1, “ALLERGY ANTIGEN AND EPITOPE THEREOF” (HOYU CO., LTD., priority 2019, published 2024).

What follows are substances tested on IgE antibody present in the serum of a wheat-allergic patient (assay: Wheat epitope mapping (1): peptide array of overlapping 15-amino-acid peptides, chemiluminescence). Conditions: bound = chemiluminescence value minus N2nd value of 5 non-wheat-allergic subjects at least 35,000; serum of 49 patients.
Assay type: binding, human
Procedure: Epitope mapping was carried out using a library of overlapping peptides (length: 15 amino acids) corresponding to the amino acid sequences identified as allergy components of wheat. Specifically, the library of overlapping peptides was prepared on the basis of the amino acid sequences of SEQ ID NOs: 2, 4, 6, 8, 10, 12, 14, 16, 18, 20, 22, 24, 26 and 28.
The peptides to be synthesized were shifted by 10 amino acids.
For preparation of peptide arrays, the Intavis CelluSpots™ technique was used. Specifically, the peptide arrays were prepared by the following procedure: (1) synthesizing peptides of interest on amino-modified cellulose disks using an automated chemical synthesis apparatus (Intavis MultiPep RS), (2) dissolving the amino-modified cellulose disks to obtain a cellulose-bound peptide solution, and (3) spotting the cellulose-bound peptides onto coated glass slides. The details of each procedure are as described below.
Peptide synthesis was carried out in incremental steps through 9-fluorenylmethoxycarbonyl (Fmoc) chemical reaction on amino-modified cellulose disks in 384-well synthesis plates. Specifically, amino acids in which a Fmoc group is bonded to an amino group were activated in a solution of N,N′-diisopropylcarbodiimide (DIC) and 1-hydroxybenzotriazole (HOBt) in dimethylformamide (DMF) and added dropwise to the cellulose disks so that the Fmoc group-bound amino acids were bound to the amino groups on the cellulose disks (coupling). Unreacted amino groups were capped with acetic anhydride and washed with DMF. Furthermore, the Fmoc groups were eliminated from the amino groups of the amino acids bound to the amino groups on the cellulose disks by treatment with piperidine and washing with DMF. The amino acids bound to the amino groups on the cellulose disks were repetitively subjected to the coupling, the capping, and the Fmoc group elimination described above to elongate the amino terminus for peptide synthesis.
The peptides-bound cellulose disks of interest obtained above in the subsection titled “(1) Synthesis of peptide” were transferred to 96-well plates and treated with a side chain deprotection mixed solution of trifluoroacetic acid (TFA), dichloromethane, triisopropylsilane (TIPS), and water for deprotection of amino acid side chains. Then, the deprotected cellulose-bound peptides were dissolved in a mixed solution of TFA, […] acid (TFMSA), TIPS, and water and precipitated in […] methyl ether (TBME), and the precipitate was resuspended in dimethyl sulfoxide (DMSO) and mixed with a mixed solution of NaCl, sodium citrate, and water to obtain a peptide solution for slide spotting.
The peptide solution for slide spotting obtained above in the subsection titled “(2) Dissolution of amino-modified cellulose disk” was spotted onto Intavis CelluSpots™ slides using Intavis Slide Spotting Robot, and the slides were dried to prepare peptide arrays.
The presence or absence of binding, to each peptide fragment, of an IgE antibody present in the serum of a wheat-allergic patient was measured through antigen-antibody reaction using the peptide arrays. […]

| binding of patient-specific IgE antibodies to 15-residue peptide | Substance |
| --- | --- |
| confirmed to bind | SEQ ID NO: 1367: common 15-residue epitope sequence of polypeptide (E21) (KPWQQQPLPPQQQPP; REGION 1..15: note = epitope) |
| confirmed to bind | SEQ ID NO: 899: common 15-residue epitope sequence of polypeptide (E12) (LGQQQQQFPGQQQPF; REGION 1..15: note = epitope) |
| confirmed to bind | SEQ ID NO: 2217: common 15-residue epitope sequence of polypeptide (E37) (VSRLLRGIRNYRVAI; REGION 1..15: note = epitope) |
| confirmed to bind | SEQ ID NO: 1895: common 15-residue epitope sequence of polypeptide (E31) (QVPLVQQQQFPGQQQ; REGION 1..15: note = epitope) |
| confirmed to bind | SEQ ID NO: 1789: common 15-residue epitope sequence of polypeptide (E29) (SGKELEALPKFLKNG; REGION 1..15: note = epitope) |
| confirmed to bind | SEQ ID NO: 2309: common 15-residue epitope sequence of polypeptide (E39) (QSRYDAIRAIIYSIV; REGION 1..15: note = epitope) |
| confirmed to bind | SEQ ID NO: 2631: common 15-residue epitope sequence of polypeptide (E45) (RFEKEAAEMNKRSFK; REGION 1..15: note = epitope) |
| confirmed to bind | SEQ ID NO: 776: common 15-residue epitope sequence of polypeptide (E11) (QPYPQPQPFPSQQPY; REGION 1..15: note = epitope) |
| confirmed to bind | SEQ ID NO: 414: common 15-residue epitope sequence of polypeptide (E6) (KWRAVLKIGATEPSQ; REGION 1..15: note = epitope) |
| confirmed to bind | SEQ ID NO: 2809: common 15-residue epitope sequence of polypeptide (E49) (VYSANTHRSKWFRVV; REGION 1..15: note = epitope) |
| confirmed to bind | SEQ ID NO: 1753: common 15-residue epitope sequence of polypeptide (E28) (VKEVSSYLKKVGYNP; REGION 1..15: note = epitope) |
| confirmed to bind | SEQ ID NO: 2068: common 15-residue epitope sequence of polypeptide (E35) (PPYCTIAPFGIFGTN; REGION 1..15: note = epitope) |
| confirmed to bind | SEQ ID NO: 2419: common 15-residue epitope sequence of polypeptide (E41) (QSTLKAWSGKTENEE; REGION 1..15: note = epitope) |
| confirmed to bind | SEQ ID NO: 2774: common 15-residue epitope sequence of polypeptide (E48) (FLKNGDAGIVKMIPT; REGION 1..15: note = epitope) |
| confirmed to bind | SEQ ID NO: 1297: common 15-residue epitope sequence of polypeptide (E20) (SINVENVEDNRRALR; REGION 1..15: note = epitope) |
| confirmed to bind | SEQ ID NO: 1836: common 15-residue epitope sequence of polypeptide (E30) (VIAEYTVRTLQRTVP; REGION 1..15: note = epitope) |
| confirmed to bind | SEQ ID NO: 2830: common 15-residue epitope sequence of polypeptide (E50) (YIVVEGRDGYFEMAC; REGION 1..15: note = epitope) |

| binding of patient-specific IgE antibodies to 15-residue peptide | Substance |
| --- | --- |
| confirmed to bind | SEQ ID NO: 1598: common 15-residue epitope sequence of polypeptide (E25) (PQQPAQLEAIRSLVL; REGION 1..15: note = epitope) |
| confirmed to bind | SEQ ID NO: 1685: common 15-residue epitope sequence of polypeptide (E27) (PAKEAANFTSQVIIM; REGION 1..15: note = epitope) |
| confirmed to bind | SEQ ID NO: 281: common 15-residue epitope sequence of polypeptide (E4) (QQPQQPFPQQQQPLI; REGION 1..15: note = epitope) |
| confirmed to bind | SEQ ID NO: 2004: common 15-residue epitope sequence of polypeptide (E33) (STGTIGKRFASINVE; REGION 1..15: note = epitope) |
| confirmed to bind | SEQ ID NO: 2674: common 15-residue epitope sequence of polypeptide (E46) (YKGPTLLEALDQINE; REGION 1..15: note = epitope) |
| confirmed to bind | SEQ ID NO: 1508: common 15-residue epitope sequence of polypeptide (E23) (QVPLVQQQQFLGQQQ; REGION 1..15: note = epitope) |
| confirmed to bind | SEQ ID NO: 29: common 15-residue epitope sequence of polypeptide (E1) (QQILWYHQQQPIQQQ; REGION 1..15: note = epitope) |
| confirmed to bind | SEQ ID NO: 2265: common 15-residue epitope sequence of polypeptide (E38) (LGGIDKRVIERFEKE; REGION 1..15: note = epitope) |
| confirmed to bind | SEQ ID NO: 131: common 15-residue epitope sequence of polypeptide (E2) (PPFPQQHQQFPQQQI; REGION 1..15: note = epitope) |
| confirmed to bind | SEQ ID NO: 2613: common 15-residue epitope sequence of polypeptide (E44) (SAKPLLASLSKRVLT; REGION 1..15: note = epitope) |
| confirmed to bind | SEQ ID NO: 346: common 15-residue epitope sequence of polypeptide (E5) (PQQSFPQQQRPFIQP; REGION 1..15: note = epitope) |
| confirmed to bind | SEQ ID NO: 1010: common 15-residue epitope sequence of polypeptide (E14) (WLQQQLVPQLQQPLS; REGION 1..15: note = epitope) |
| confirmed to bind | SEQ ID NO: 1089: common 15-residue epitope sequence of polypeptide (E15) (STKGGKPFVDILKAG; REGION 1..15: note = epitope) |
| confirmed to bind | SEQ ID NO: 1142: common 15-residue epitope sequence of polypeptide (E16) (TEPSQLSIDQNAQGL; REGION 1..15: note = epitope) |
| confirmed to bind | SEQ ID NO: 2342: common 15-residue epitope sequence of polypeptide (E40) (HDIDRCAYVTEIVLA; REGION 1..15: note = epitope) |
| confirmed to bind | SEQ ID NO: 2027: common 15-residue epitope sequence of polypeptide (E34) (TPGALQYLSGVILFE; REGION 1..15: note = epitope) |
| confirmed to bind | SEQ ID NO: 1403: common 15-residue epitope sequence of polypeptide (E22) (QYLQPQQPISQQQAQ; REGION 1..15: note = epitope) |
